Test results: ChEMBL document CHEMBL4813922, “Discovery of a novel small-molecule inhibitor of Fam20C that induces apoptosis and inhibits migration in triple negative breast cancer” (Eur J Med Chem, 2021)

Assays:
[1] = target: T1, Extracellular serine/threonine protein kinase FAM20C (Homo sapiens) (UniProt Q8IXL6); assay: Inhibition of Fam20C (unknown origin) assessed as reduction in inorganic phosphate release in presence of ATP at 10 uM measured by Malachite green phosphate staining based micro plate reader assay relative to control
T1 sequence (whole entry): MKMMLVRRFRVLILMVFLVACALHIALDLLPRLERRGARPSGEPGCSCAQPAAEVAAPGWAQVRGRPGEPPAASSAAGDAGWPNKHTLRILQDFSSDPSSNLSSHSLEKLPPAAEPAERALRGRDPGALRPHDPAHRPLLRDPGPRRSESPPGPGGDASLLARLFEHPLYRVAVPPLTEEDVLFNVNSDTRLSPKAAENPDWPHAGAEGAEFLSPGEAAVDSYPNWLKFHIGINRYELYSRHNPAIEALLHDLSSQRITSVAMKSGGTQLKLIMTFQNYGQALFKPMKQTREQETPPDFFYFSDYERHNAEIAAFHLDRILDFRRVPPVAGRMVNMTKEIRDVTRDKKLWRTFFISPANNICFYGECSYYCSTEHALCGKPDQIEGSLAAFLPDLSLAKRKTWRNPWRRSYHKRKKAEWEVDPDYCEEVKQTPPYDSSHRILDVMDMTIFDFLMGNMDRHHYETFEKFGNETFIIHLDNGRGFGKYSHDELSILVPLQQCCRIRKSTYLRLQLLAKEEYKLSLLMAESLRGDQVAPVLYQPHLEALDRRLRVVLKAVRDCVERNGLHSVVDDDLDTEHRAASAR

[2] = tested on: MCF7; assay: Antiproliferative activity against human MCF7 cells measured by MTT assay; format: functional, cell-based
[3] = tested on: MDA-MB-468; assay: Antiproliferative activity against human MDA-MB-468 cells measured by MTT assay; format: functional, cell-based
[4] = tested on: MDA-MB-231; assay: Antiproliferative activity against human MDA-MB-231 cells measured by MTT assay; format: functional, cell-based

inhibition [1] [%] | IC50 [2] [µM] | IC50 [3] [µM] | IC50 [4] [µM] | Structure (SMILES)
49 | > 50 | 3.62 | 7.2 | COc1ccc(C(=O)Nc2ccc(Nc3nc(C)cc(Nc4cc(OC)c(OC)c(OC)c4)n3)cc2)cc1
12 | > 50 | > 50 | > 50 | COc1cc(C)cc(Cl)c1S(=O)(=O)Nc1ccc(Nc2nc(C)cc(Nc3ccc(F)cc3)n2)cc1
18 | 14 | > 50 | 32.9 | COc1ccc(Nc2cc(C(F)(F)F)nc(Nc3ccc(NS(=O)(=O)c4ccccc4OC(F)(F)F)cc3)n2)cc1
14 | > 50 | > 50 | > 50 | COc1ccc(Nc2ccc(Nc3nc(C)cc(Nc4ccc(OC)cc4)n3)cc2)cc1
12 | > 50 | > 50 | > 50 | COc1ccc(Nc2cc(C)nc(Nc3ccc(NS(=O)(=O)c4c(Cl)cc(C)cc4OC)cc3)n2)cc1
24 | 18 | 32.3 | 17.5 | Cc1cc(Nc2ccc(F)cc2)nc(Nc2ccc(NS(=O)(=O)c3ccc(C(F)(F)F)cc3)cc2)n1

The next lines start with the compound.

Structure (SMILES) | inhibition [1] [%] | IC50 [2] [µM] | IC50 [3] [µM] | IC50 [4] [µM]
COc1ccc(S(=O)(=O)Nc2ccc(Nc3nccc(-c4ccccc4)n3)cc2)cc1 | 10 | > 50 | > 50 | > 50
COc1ccc(Nc2ccnc(Nc3ccc(NS(=O)(=O)c4ccc(C)cc4)cc3)n2)cc1 | 28 | > 50 | > 50 | 21.2
COc1ccc(Nc2cc(C(F)(F)F)nc(Nc3ccc(NS(=O)(=O)c4ccccc4Cl)cc3)n2)cc1 | 21 | > 50 | > 50 | 43.6
COc1ccc(Nc2cc(C(F)(F)F)nc(Nc3ccc(NS(=O)(=O)c4ccc(OC)cc4)cc3)n2)cc1 | 43 | > 50 | > 50 | 21.2
COc1ccc(S(=O)(=O)Nc2ccc(Nc3nc(C)cc(Nc4ccc(OC)c(O)c4)n3)cc2)cc1 | 11 | > 50 | > 50 | > 50
COc1ccc(Nc2cc(C(F)(F)F)nc(Nc3ccc(NS(=O)(=O)c4c(Cl)cc(C)cc4OC)cc3)n2)cc1 | 11 | > 50 | > 50 | > 50
